# According to patent US20240018592A1, “METHODS OF ASSESSING THE THERAPEUTIC ACTIVITY OF AGENTS FOR THE TREATMENT OF IMMUNE DISORDERS” (Technion Research & Development Foundation Limited, priority 2020, published 2024):
# Legend:
# Type in all cases: in vivo, human
# [1] = tested on: Crohn's disease (CD) patients; experiment: Infliximab induction treatment of Crohn's disease patients: clinical and laboratory outcome (CRP, albumin, HBI, clinical response, response classification); conditions: for HBI 14 w post first treatment: Harvey-Bradshaw Index; for HBI 14 w post first treatment / Albumin 2 w post first treatment / Albumin 14 w post first treatment / CRP 2 w post first treatment / CRP 14 w post first treatment: mean ± SEM
# Procedure: (§1) Sample collection: The cohort consisted of 24 Crohn's disease (CD) patients who received Infliximab anti-TNF treatment at the gastroenterology department of the Rambam Health Care Campus (RHCC) and met the study inclusion criteria as follows: 1) Adequately documented active luminal CD, as phenotyped by a gastroenterologist with expertise in IBD; 2) Documented decision to initiate full infliximab induction regimen with 5 mg/kg induction dosing (i.e. at weeks 0, 2, 6). Patients that had past exposure to Infliximab, Adalimumab or Vedolizumab, or patients who had active infection including febrile diseases or intra-abdominal or perianal abscess were excluded.
# (§2) Patient samples were obtained at three time points: at baseline, before infliximab treatment, and two and fourteen weeks post first treatment and assayed for gene expression microarray data.
# Patient response classification was defined by decision algorithm, as described previously (Gaujoux et al. 2018). Briefly, patients were classified as responders based on clinical remission, which was defined as cessation of diarrhea and abdominal cramping or, in the cases of patients with fistulas, cessation of fistula drainage and complete closure of all draining fistulas at week 14, coupled with a decision of the treating physician to continue IFX therapy at the current dosing and schedule. Patients that were defined as partial responders, classification was determined by the decision algorithm that included the following hierarchical rules: 1) steroid dependency at week fourteen; 2) biomarker dynamics (Calprotectin and CRP) and 3) response according to clinical state at week 26.
# Applying the decision algorithm and exclusion criteria, yielded a final study cohort of 15 and 9 responding and non-responding patients, respectively.
# [2] = Infliximab drug levels and anti-drug antibodies (ADA) after first treatment; conditions: drug level, mean ± SEM, levels >20 taken as 20
# Procedure: as §1, §2
# [3] = tested on: immune age (IMM-AGE) score of peripheral blood; experiment: Immune-age score from whole blood gene expression (Affymetrix Clariom S, single-sample GSEA) before and after infliximab
# Excerpt: as §2
# Blood transcriptome processing and analysis: Whole blood was preserved in PAXgene Blood RNA tubes (PreAnalytiX). RNA was extracted and assayed using Affymetrix Clariom S chips (Thermo Fisher Scientific). The raw gene array data were processed to obtain a log 2 expression value for each gene probe set using the RMA (robust multichip average) method available in the affy R package. Probe set annotation was performed using affycoretools and clariomshumantranscriptcluster.db packages in R. Data were further adjusted for batch effect using empirical Bayes framework applied by the Combat R package.
# Using a high-resolution longitudinal gene expression dataset from peripheral blood samples of 24 CD patients, 15 and 9 responding and non-responding patients, at three time points: pretreatment, 2 and 14 weeks post first treatment, the present inventors evaluated the samples' immune-age score reflecting the samples' position along the high dimensional IMM-AGE trajectory. To quantify the immune age of the CD patients, they used normalized gene expression measurements of the following genes: ABLIM1, AFF3, BACH2, BCL11A, BIRC3, BLNK, BTLA, C11orf31, C6orf48, CCR6, CCR7, CD200, CD22, CD27, CD28, CDCA7L, CHMP7, CR2, DPP4, E2F5, EPHX2, FAIM3, FAM102A, FAM134, FCRL1, FCRL2. HOOK1, HVCN1, IL6ST, IMPDH2, KIAA0748, LEF1, LRRN3, MYC, NELL2, NT5E, P2RX5, PAQR8, PLAG1, PTPRK, RCAN3, SCML1, SLC7A6, SNX9, STRBP, SUSD3, TCF4, TCF7, TCL1A, TCTN1, UXT, VPREB3, ZNF101, ZNF671, CRTC3, STAP1 and HLA-DOB.
# The immune-age of the CD patients was estimated by using single-sample GSEA algorithm (Barbie D A et al. Nature 462, 108-112 (2009)). An external IBD (CD and UC) disease specific molecular response axis was used to describe the patients' dynamics by generating a PCA on differential gene expression between active and in-active disease states treated with variety of treatment regimens (using public data, GSE94648).
# [4] = of 24 CD patients, classified by decision algorithm at week 14
substance,measurement,setting,value
Infliximab [IFX],HBI 14 w post first treatment,[1]; IFX non-responders (n = 9),5 ± 2.2
same,HBI 14 w post first treatment,[1]; IFX responders (n = 15),0.8 ± 0.3
same,Albumin 2 w post first treatment,[1]; IFX non-responders (n = 9),3.3 ± 0.3
same,Albumin 14 w post first treatment,[1]; IFX non-responders (n = 9),3.1 ± 0.2
same,CRP 2 w post first treatment,[1]; IFX non-responders (n = 9),8.8 ± 3.2
same,CRP 14 w post first treatment,[1]; IFX non-responders (n = 9),28.0 ± 13.6
same,Albumin 2 w post first treatment,[1]; IFX responders (n = 15),3.7 ± 0.1
same,Albumin 14 w post first treatment,[1]; IFX responders (n = 15),4.0 ± 0.1
same,CRP 14 w post first treatment,[1]; IFX responders (n = 15),5.1 ± 1.8
same,CRP 2 w post first treatment,"[1]; IFX responders (n = 15), 5 mg/kg induction",2.7 ± 0.7
same,non-responding patients,[1]; [4],9 patients
same,responding patients,[1]; [4],15 patients
same,IFX 2 w post first treatment,[2]; IFX non-responders (n = 9),8.9 ± 1.9 ng/µL
same,IFX 14 w post first treatment,[2]; IFX non-responders (n = 9),0.9 ± 0.3 ng/µL
same,IFX 2 w post first treatment,[2]; IFX responders (n = 15),10.7 ± 1.8 ng/µL
same,IFX 14 w post first treatment,[2]; IFX responders (n = 15),3.3 ± 0.5 ng/µL
same,shift of patients' immune age,[3]; cohort of 24 CD patients treated with anti-TNF (Infliximab),dramatically shift patients' immune age
same,immune age dynamics in responders,"[3]; responders versus non-responders, post treatment relative to baseline",shifted back their immune age and presented a significant drop
same,"immune age score in responders, early","[3]; responders, 2 weeks post treatment",significant reduced immune age score
